{"source": "patent US20230263786A1", "about": "“MODULATION OF DRUG-DRUG INTERACTIONS OF VADADUSTAT” (Akebia Therapeutics, Inc., priority 2020, published 2023)", "key": {"[1]": {"test": "Phase I calcium acetate interaction study", "format": "in vivo, human", "settings": "for AUC(0-t) / Cmax / Tmax / AUC(0-inf) / clearance / half-life / Vd: human, plasma, oral; for Tmax: median; for clearance: read-out: Clearance (ClB) (converted); for half-life: read-out: Elimination half-life (t1/2) (converted); for Vd: read-out: Volume of distribution (Vc)", "description": "A phase I, open-label, fixed-sequence study was conducted in healthy adult subjects to assess the effect of 1) a single oral dose of calcium acetate on the pharmacokinetics of a single oral dose of vadadustat.\nThe study included screening (28 days maximum), 9-day treatment period, and a 14-day follow-up period post last dose.\nPharmacokinetics. A predose PK blood sample was collected on Day 1. After each dose of vadadustat administered (Days 1, 3, 5, and 7), blood samples for PK analysis were collected at the following time points: predose and 0.5, 1, 1.5, 2, 3, 4, 6, 9, 12, 16, 24, and 48 hours after each dose of vadadustat. The 48-hour postdose sample was collected before vadadustat administration on Days 3, 5, and 7. The following parameters were calculated and analyzed: AUC0-∞, AUC0-last, Cmax, Tmax, Kel, CIB, Vc/F, and t1/2.\nSubjects were dosed approximately at the same designated time on each dosing day, where applicable. Study drugs were administered with approximately 8 ounces (240 mL) of water at room temperature in a seated position. Subjects were instructed to drink the full 8 ounces of water, and not to chew or break the tablets/gelcaps.\nThe 9-day treatment period was conducted as follows: • Day 1: vadadustat administered immediately after consuming breakfast. • Day 2: wash-out (no investigational product administration). • Day 3: vadadustat administered concomitantly with the requisite phosphate binder immediately after consuming breakfast. • Day 4: wash-out (no investigational product administration). • Day 5: vadadustat administered in fasted condition and the phosphate binder administered 1 hour later (breakfast must be served within 2 minutes after phosphate binder administration and consumed immediately after it is served). • Day 6: wash-out (no investigational product administration). • Day 7: phosphate binder administered immediately after consuming breakfast; vadadustat administered 2 hours after the phosphate binder was administered. • Day 8: wash-out (no investigational product administration). • Day 9: subjects discharged from the Clinical Research Unit (CRU) after the 48-hour postdose PK blood sample has been collected.\nA single oral dose of vadadustat 300 mg (2×150 mg tablets) was administered on Days 1, 3, 5, and 7. Phosphate binder that is calcium acetate (1334 mg, 2×667 mg gelcaps) was administered on Days 3, 5, and 7."}, "[2]": {"test": "Phase 1 oral iron interaction study, Cohort 3 (fasting): dried ferrous sulfate slow release", "format": "in vivo, human", "settings": "for AUC(0-inf) / AUC(0-t) / Cmax / half-life: male, human, plasma, oral; for AUC(0-inf): read-out: AUC(0-inf), LS geometric mean; for AUC(0-t): read-out: AUC(0-last), LS geometric mean; for Cmax: read-out: Cmax, LS geometric mean; for half-life: read-out: t1/2, LS geometric mean (converted)", "text": "The study included 3 periods as follow: • Screening: performed within 4 weeks before the day of administration of the study drug. • Evaluation period: Cohort 1 was confined to the study site for 10-night, 11-day. Cohort 2 and Cohort 3 were confined to the study site for 7 nights and 8 days. • Post-administration tests: performed 3 days after administration of the last dose of the study drug.\nIn Cohort 3, 20 subjects were further randomized into 2 groups (10 subjects per group) and the evaluation period was divided into 2 periods during the study:\n(§1) Administration of vadadustat tablets alone: after fasting for at least 10 hours, 1 vadadustat tablet (150 mg) would be taken orally with 200 mL of water (extra water may be drunk if more is needed when taking the tablet, and the extra volume would be recorded). Subjects would fast until the end of the collection of blood samples at 4 hours after administration of the study drug. Subjects would eat lunch over a period of 20 minutes after blood samples were collected at 4 hours after administration of the study drug. After lunch, subjects would fast until dinner, when they would eat dinner over a period of 20 minutes at 10 hours after administration of the study drug. Subjects would fast from dinner until breakfast the next morning.\nas §1, with “and dried ferrous sulfate:” for “alone:”, “mg) and 2 tablets of dried ferrous sulfate (containing 210 mg of iron)” for “mg)”, “tablets,” for “tablet,”"}, "[3]": {"settings": "concomitant administration of phosphate binder, ANOVA"}, "[4]": {"settings": "300 mg, Concomitant administration with calcium acetate 1334 mg after breakfast"}, "[5]": {"settings": "300 mg, Vadadustat 300 mg alone, immediately after breakfast"}, "[6]": {"settings": "300 mg, Vadadustat administered 1 hour prior to calcium acetate, fasting"}, "[7]": {"settings": "300 mg, Vadadustat administered 2 hours after calcium acetate"}, "[8]": {"settings": "150 mg with dried ferrous sulfate slow release (210 mg iron), fasting"}}, "note": "Like-named read-outs stand apart in the source and are kept apart here.", "data": [{"smiles": "O=C(O)CNC(=O)c1ncc(-c2cccc(Cl)c2)cc1O", "note": "[Compound 1, {[5-(3-chlorophenyl)-3-hydroxypyridine-2-carbonyl]amino}acetic acid]", "values": [{"measurement": "reduction of AUC0-last and AUC0-∞", "setting": "[1]; [3]", "result": "about 55%"}, {"measurement": "reduction of Cmax", "setting": "[1]; [3]", "result": "about 51%"}, {"measurement": "AUC(0-t)", "setting": "[1]; [4]", "result": "77.4 ± 31.7", "unit": "µg·h/mL"}, {"measurement": "Cmax", "setting": "[1]; [4]", "result": "11300 ± 4390", "unit": "ng/mL"}, {"measurement": "Tmax", "setting": "[1]; [4]", "result": 4, "unit": "h"}, {"measurement": "AUC(0-inf)", "setting": "[1]; 300 mg, Concomitant administration with calcium acetate 1334 mg after breakfast, read-out: AUC0-∞", "result": "79.6 ± 32.7", "unit": "µg·h/mL"}, {"measurement": "clearance", "setting": "[1]; [4]", "result": 77.3, "unit": "mL/min"}, {"measurement": "half-life", "setting": "[1]; [4]", "result": "275 ± 54", "unit": "min"}, {"measurement": "Vd", "setting": "[1]; [4]", "result": "29.8 ± 14.6", "unit": "L"}, {"measurement": "AUC(0-t)", "setting": "[1]; [5]", "result": "163 ± 45.7", "unit": "µg·h/mL"}, {"measurement": "Cmax", "setting": "[1]; [5]", "result": "21900 ± 5610", "unit": "ng/mL"}, {"measurement": "Tmax", "setting": "[1]; [5]", "result": 3.93, "unit": "h"}, {"measurement": "AUC(0-inf)", "setting": "[1]; 300 mg, Vadadustat 300 mg alone, immediately after breakfast, read-out: AUC0-∞", "result": "166 ± 45.4", "unit": "µg·h/mL"}, {"measurement": "clearance", "setting": "[1]; [5]", "result": 31.8, "unit": "mL/min"}, {"measurement": "half-life", "setting": "[1]; [5]", "result": "285 ± 72", "unit": "min"}, {"measurement": "Vd", "setting": "[1]; [5]", "result": "12.6 ± 2.41", "unit": "L"}, {"measurement": "AUC(0-t)", "setting": "[1]; [6]", "result": "130 ± 36.2", "unit": "µg·h/mL"}, {"measurement": "Cmax", "setting": "[1]; [6]", "result": "25000 ± 9560", "unit": "ng/mL"}, {"measurement": "Tmax", "setting": "[1]; [6]", "result": 1.44, "unit": "h"}, {"measurement": "AUC(0-inf)", "setting": "[1]; 300 mg, Vadadustat administered 1 hour prior to calcium acetate, fasting, read-out: AUC0-∞", "result": "133 ± 36.8", "unit": "µg·h/mL"}, {"measurement": "clearance", "setting": "[1]; [6]", "result": 40.3, "unit": "mL/min"}, {"measurement": "half-life", "setting": "[1]; [6]", "result": "268 ± 45", "unit": "min"}, {"measurement": "Vd", "setting": "[1]; [6]", "result": "15.3 ± 3.25", "unit": "L"}, {"measurement": "AUC(0-t)", "setting": "[1]; [7]", "result": "132 ± 44.3", "unit": "µg·h/mL"}, {"measurement": "Cmax", "setting": "[1]; [7]", "result": "24600 ± 7130", "unit": "ng/mL"}, {"measurement": "Tmax", "setting": "[1]; [7]", "result": 2.97, "unit": "h"}, {"measurement": "AUC(0-inf)", "setting": "[1]; 300 mg, Vadadustat administered 2 hours after calcium acetate, read-out: AUC0-∞", "result": "135 ± 44.3", "unit": "µg·h/mL"}, {"measurement": "clearance", "setting": "[1]; [7]", "result": 42.2, "unit": "mL/min"}, {"measurement": "half-life", "setting": "[1]; [7]", "result": "290 ± 61.8", "unit": "min"}, {"measurement": "Vd", "setting": "[1]; [7]", "result": "17.8 ± 9.99", "unit": "L"}, {"measurement": "AUC(0-inf)", "setting": "[1]; vadadustat administered concurrently with calcium acetate, read-out: geometric LS mean AUC0-∞", "result": 72.4, "unit": "µg·h/mL"}, {"measurement": "changes in vadadustat exposure", "setting": "[1]; vadadustat administered 1 hour prior to calcium acetate", "result": "within the prespecified no-effect boundaries of 80% to 125%"}, {"measurement": "changes in vadadustat exposure", "setting": "[1]; vadadustat administered 2 hours after calcium acetate", "result": "within the prespecified no-effect boundaries of 80% to 125%"}, {"measurement": "Kel, LS geometric mean", "setting": "[2]; [8]", "result": 0.14, "unit": "h⁻¹"}, {"measurement": "Kel, LS geometric mean", "setting": "[2]; Compound 1 150 mg alone, fasting", "result": 0.13, "unit": "h⁻¹"}, {"measurement": "AUC(0-inf)", "setting": "[2]; 150 mg", "result": 128000, "unit": "ng·h/mL"}, {"measurement": "AUC(0-t)", "setting": "[2]; 150 mg", "result": 124000, "unit": "ng·h/mL"}, {"measurement": "Cmax", "setting": "[2]; 150 mg", "result": 26500, "unit": "ng/mL"}, {"measurement": "half-life", "setting": "[2]; 150 mg", "result": 310, "unit": "min"}, {"measurement": "AUC(0-inf)", "setting": "[2]; [8]", "result": 13200, "unit": "ng·h/mL"}, {"measurement": "AUC(0-t)", "setting": "[2]; [8]", "result": 12000, "unit": "ng·h/mL"}, {"measurement": "Cmax", "setting": "[2]; [8]", "result": 2140, "unit": "ng/mL"}, {"measurement": "half-life", "setting": "[2]; [8]", "result": 288, "unit": "min"}]}]}
